What follows are molecules tested against PLK1 (Homo sapiens, UniProt P53350) (assay: PLK1 protein kinase assay (CDC25C phosphorylation, [γ-32P]-ATP)). Conditions: Table 2, PLK1 IC50; class symbols; read-out: PLK1 IC50.
Sequence of PLK1 (P53350 whole entry): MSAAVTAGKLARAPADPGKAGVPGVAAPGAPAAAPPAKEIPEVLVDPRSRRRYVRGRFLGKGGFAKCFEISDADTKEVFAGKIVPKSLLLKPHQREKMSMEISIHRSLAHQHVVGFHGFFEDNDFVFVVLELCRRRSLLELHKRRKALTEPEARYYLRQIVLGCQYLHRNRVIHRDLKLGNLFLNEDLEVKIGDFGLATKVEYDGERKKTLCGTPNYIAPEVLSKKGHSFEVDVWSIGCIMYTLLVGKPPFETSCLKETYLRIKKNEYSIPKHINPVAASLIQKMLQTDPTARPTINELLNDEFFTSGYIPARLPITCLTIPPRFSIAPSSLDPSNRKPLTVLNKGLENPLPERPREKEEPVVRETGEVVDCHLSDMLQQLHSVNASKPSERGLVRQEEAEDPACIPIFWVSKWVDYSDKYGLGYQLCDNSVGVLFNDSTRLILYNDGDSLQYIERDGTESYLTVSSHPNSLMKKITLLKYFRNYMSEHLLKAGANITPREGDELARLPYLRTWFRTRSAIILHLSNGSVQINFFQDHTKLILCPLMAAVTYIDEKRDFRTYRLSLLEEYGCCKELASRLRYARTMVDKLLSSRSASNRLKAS
Assay type: biochemical
`COc1cc(C(=O)NC2CCCN(C)C2)ccc1Nc1ncc2c(n1)N(CC(C)C)CCC(=O)N2C` (stereo not drawn) [compound 303, 4-(9-Isobutyl-5-methyl-6-oxo-6,7,8,9-tetrahydro-5H-pyrimido[4,5-b][1,4]diazepin-2-ylamino)-3-methoxy-N-(1-methyl-piperidin-3-yl)-benzamide] was tested, and the IC50 was < 1000 nM.
With `COc1cc(C(=O)NC2CCN(Cc3ccccc3)CC2)ccc1Nc1ncc2c(n1)N(CC(C)C)CCC(=O)N2C` [compound 304, N-(1-Benzyl-piperidin-4-yl)-4-(9-isobutyl-5-methyl-6-oxo-6,7,8,9-tetrahydro-5H-pyrimido[4,5-b][1,4]diazepin-2-ylamino)-3-methoxy-benzamide] the IC50 was < 1000 nM.
For `COc1cc(C(=O)NC2CN3CCC2CC3)ccc1Nc1ncc2c(n1)N(CC(C)C)CCC(=O)N2C` (stereo not drawn) [compound 305, N-(1-Aza-bicyclo[2.2.2]oct-3-yl)-4-(9-isobutyl-5-methyl-6-oxo-6,7,8,9-tetrahydro-5H-pyrimido[4,5-b][1,4]diazepin-2-ylamino)-3-methoxy-benzamide], the IC50 was < 1000 nM.
With `COc1cc(C(=O)NC2CC(C)(C)N(C)C(C)(C)C2)ccc1Nc1ncc2c(n1)N(CC(C)C)CCC(=O)N2C` [compound 306, 4-(9-Isobutyl-5-methyl-6-oxo-6,7,8,9-tetrahydro-5H-pyrimido[4,5-b][1,4]diazepin-2-ylamino)-3-methoxy-N-(1,2,2,6,6-pentamethyl-piperidin-4-yl)-benzamide] the IC50 was < 1000 nM.
With `CCN(CC)CCNC(=O)c1ccc(Nc2ncc3c(n2)N(CC(C)C)CCC(=O)N3C)c(OC)c1` [compound 307, N-(2-Diethylamino-ethyl)-4-(9-isobutyl-5-methyl-6-oxo-6,7,8,9-tetrahydro-5H-pyrimido[4,5-b][1,4]diazepin-2-ylamino)-3-methoxy-benzamide] the IC50 was < 1000 nM.
For `COc1cc(C(=O)NC2CCN(C)CC2)ccc1Nc1ncc2c(n1)N(c1ccccc1C)CCC(=O)N2C` [compound 308, 3-Methoxy-4-(5-methyl-6-oxo-9-o-tolyl-6,7,8,9-tetrahydro-5H-pyrimido[4,5-b][1,4]diazepin-2-ylamino)-N-(1-methyl-piperidin-4-yl)-benzamide], the IC50 was < 10000 nM.
For `COc1cc(C(=O)NC2CCCN(C)C2)ccc1Nc1ncc2c(n1)N(c1ccccc1C)CCC(=O)N2C` (stereo not drawn) [compound 309, 3-Methoxy-4-(5-methyl-6-oxo-9-o-tolyl-6,7,8,9-tetrahydro-5H-pyrimido[4,5-b][1,4]diazepin-2-ylamino)-N-(1-methyl-piperidin-3-yl)-benzamide], the IC50 was < 10000 nM.
`COc1cc(C(=O)NC2CCN(Cc3ccccc3)CC2)ccc1Nc1ncc2c(n1)N(c1ccccc1C)CCC(=O)N2C` [compound 310, N-(1-Benzyl-piperidin-4-yl)-3-methoxy-4-(5-methyl-6-oxo-9-o-tolyl-6,7,8,9-tetrahydro-5H-pyrimido[4,5-b][1,4]diazepin-2-ylamino)-benzamide] was tested, and the IC50 was < 10000 nM.
For `COc1cc(C(=O)NC2CN3CCC2CC3)ccc1Nc1ncc2c(n1)N(c1ccccc1C)CCC(=O)N2C` (stereo not drawn) [compound 311, N-(1-Aza-bicyclo[2.2.2]oct-3-yl)-3-methoxy-4-(5-methyl-6-oxo-9-o-tolyl-6,7,8,9-tetrahydro-5H-pyrimido[4,5-b][1,4]diazepin-2-ylamino)-benzamide], the IC50 was < 1000 nM.
With `COc1cc(C(=O)NC2CC(C)(C)N(C)C(C)(C)C2)ccc1Nc1ncc2c(n1)N(c1ccccc1C)CCC(=O)N2C` [compound 312, 3-Methoxy-4-(5-methyl-6-oxo-9-o-tolyl-6,7,8,9-tetrahydro-5H-pyrimido[4,5-b][1,4]diazepin-2-ylamino)-N-(1,2,2,6,6-pentamethyl-piperidin-4-yl)-benzamide] the IC50 was < 10000 nM.
In the case of `CCN(CC)CCNC(=O)c1ccc(Nc2ncc3c(n2)N(c2ccccc2C)CCC(=O)N3C)c(OC)c1` [compound 313, N-(2-Diethylamino-ethyl)-3-methoxy-4-(5-methyl-6-oxo-9-o-tolyl-6,7,8,9-tetrahydro-5H-pyrimido[4,5-b][1,4]diazepin-2-ylamino)-benzamide], the IC50 is reported as < 10000 nM.
With `COc1ccc(N2CCC(=O)N(C)c3cnc(Nc4ccc(C(=O)NC5CCN(C)CC5)cc4OC)nc32)cc1` [compound 314] the IC50 was < 1000 nM.

— patent US8563542B2 (Cyclacel Limited, priority 2007, dated 2013)
